In US10683333B2, “Islet amyloid polypeptides with improved solubility” (The Research Foundation for The State University of New York, priority 2014, dated 2020):
Entries after “also recorded” stand apart in the source; their conditions may differ. Where a SMILES comes first, the peptide text is derived from it. Bridges are numbered along the chain shown (N, C = ends).

Key:
[1] = Thioflavin-T fluorescence assay of amyloid formation kinetics; type: physicochemical; settings: 20 mM Tris-HCl pH 7.4, 25° C., without stirring
Experimental: Each peptide was dissolved into 100% hexafluoroisoproponal (HFIP) to make a 1.6 mM stock solution. Stock solutions were filtered using […] Acrodisc syringe filter with a GHP membrane and the required amount of peptide was lyophilized overnight to remove HFIP. Dry peptide was dissolved into the appropriate buffer for the fluorescence assays. Thioflavin-T binding assays, conducted without HFIP or stirring at 25° C., were utilized to monitor amyloid formation kinetics. Fluorescence measurements were performed using a Beckman Coulter DTX 880 plate reader with a multimode detector using an excitation wavelength of 430 nm and an emission wavelength of 485 nm. Samples were prepared by dissolving dry peptide into Tris-HCl buffer and thioflavin-T solution immediately before the measurement. The final concentrations were 16 μM hIAPP or 160 μM of each analog and 32 μM thioflavin-T in 20 mM Tris-HCl (pH 7.4). After creating mutant hIAPP polypeptides of the present disclosure, applicants tested the propensity of the different analogs to form amyloid at pH 7.4 using thioflavin-T fluorescence assays. […] Amyloid formation follows a sigmoidal time course consisting of a lag phase in which few, if any, fibrils are formed, followed by a growth phase and a saturation phase in which amyloid fibrils are in equilibrium with soluble peptide.

[2] = Transmission electron microscopy (TEM) of samples at end of kinetic experiments; type: physicochemical; settings: aliquots at end of kinetic experiment; 16 μM hIAPP, 160 μM analogs, pH 7.4
Experimental: TEM images were collected at the Life Science Microscopy Center at the State University of New York at Stony Brook. 15 μL aliquots of the samples used for fluorescence assays were removed at the end of each kinetic experiment, blotted on a carbon-coated 200-mesh copper grid for 1 min and then negatively stained with saturated uranyl acetate for 1 min. Samples were further analyzed using TEM and CD.

[3] = Far-UV circular dichroism (CD) of aliquots at end of kinetic experiments; type: physicochemical; settings: aliquots at end of kinetic experiment, 25° C.
Experimental: Far-UV CD experiments were performed on an Applied Photophysics Chirascan CD spectrophotometer at 25° C. Aliquots from the kinetic experiments were removed at the end of each experiment and the spectra were recorded as the average of three repeats over a range of 190-260 nm, at 1 nm intervals. A 0.1 cm quartz cuvette was used and a background spectrum was subtracted from the data. Samples were further analyzed using TEM and CD.

[4] = type: physicochemical; settings: pH 7.4
Experimental: Dry peptides were dissolved into PBS buffer at pH 7.4 at different initial concentrations, and were incubated for 7 days at 25° C. without stirring. Each sample was then centrifuged using a Beckman Coulter Microfuge 22R Centrifuge at 24° C. for 20 min. The relative centrifugal force used was 1.75×10^4 g. Solubility of each sample was approximated by measuring the absorbance of the corresponding supernatant at 280 nm measured using a Beckman Coulter DU 730 UV/Vis Spectrophotometer. All of the peptides contain a single Tyr, 3 Phe and a disulfide bond, thus their extinction coefficients at 280 nm are very similar. The solubility of PM and the mutant hIAPP polypeptides of the present disclosure was analyzed and compared at pH 7.4. Each peptide was incubated in buffer for 7 days at three different concentrations (100 μM, 500 μM and 1 mM) and the solution was then centrifuged. The apparent solubility was represented by the absorbance of the supernatant of each sample measured at 280 nm. […] Additionally, the supernatant of QM sample has a higher absorbance, 0.162, than that of TM-a and PM, 0.103 and 0.112 respectively (FIG. 4A). […] At 1 mM, the absorbance of the soluble fraction of TM-a, TM-b and QM were 1.23, 1.49, and 1.33 respectively, while that value of PM was only 0.354. In comparison, the absorbance of the supernatant of the 1 mM hIAPP was 0.109 (FIGS. 4A-C).

| time for amyloid formation to reach the saturation phase ([1]; 16 μM hIAPP) [h] | fibril morphology in TEM images [2] | secondary structure by CD spectrum [3] | absorbance of the supernatant at 280 nm (apparent solubility) [4] | SMILES | solubility at neutral pH compared with PM / wild-type hIAPP [4] | amyloid formation monitored by thioflavin-T fluorescence ([1]; 160 μM peptide, about 140 hrs) |
| --- | --- | --- | --- | --- | --- | --- |
| ≤ 40 | typical amyloid fibril morphology | β-sheet structure | 0.109 | CC[C@H](C)[C@H](NC(=O)[C@H](C)NC(=O)CNC(=O)[C@H](Cc1ccccc1)NC(=O)[C@H](CC(N)=O)NC(=O)[C@H](CC(N)=O)NC(=O)[C@H](CO)NC(=O)[C@H](CO)NC(=O)[C@H](Cc1c[nH]cn1)NC(=O)[C@@H](NC(=O)[C@H](CC(C)C)NC(=O)[C@H](Cc1ccccc1)NC(=O)[C@H](CC(N)=O)NC(=O)[C@H](C)NC(=O)[C@H](CC(C)C)NC(=O)[C@H](CCCNC(=N)N)NC(=O)[C@H](CCC(N)=O)NC(=O)[C@@H](NC(=O)[C@H](C)NC(=O)[C@@H]1CSSC[C@H](NC(=O)[C@@H](N)CCCCN)C(=O)N[C@@H](CC(N)=O)C(=O)N[C@@H]([C@@H](C)O)C(=O)N[C@@H](C)C(=O)N[C@@H]([C@@H](C)O)C(=O)N1)[C@@H](C)O)C(C)C)C(=O)N[C@@H](CC(C)C)C(=O)N[C@@H](CO)C(=O)N[C@@H](CO)C(=O)N[C@H](C(=O)N[C@@H](CC(N)=O)C(=O)N[C@H](C(=O)NCC(=O)N[C@@H](CO)C(=O)N[C@@H](CC(N)=O)C(=O)N[C@H](C(=O)N[C@@H](Cc1ccc(O)cc1)C(N)=O)[C@@H](C)O)C(C)C)[C@@H](C)O [hIAPP] |  |  |
|  |  |  |  | CC(C)C[C@H](NC(=O)[C@H](CCCNC(=N)N)NC(=O)[C@H](CCC(N)=O)NC(=O)[C@@H](NC(=O)[C@H](C)NC(=O)[C@@H]1CSSC[C@H](NC(=O)[C@@H](N)CCCCN)C(=O)N[C@@H](CC(N)=O)C(=O)N[C@@H]([C@@H](C)O)C(=O)N[C@@H](C)C(=O)N[C@@H]([C@@H](C)O)C(=O)N1)[C@@H](C)O)C(=O)N[C@@H](C)C(=O)N[C@@H](CC(N)=O)C(=O)N[C@@H](Cc1ccccc1)C(=O)N[C@@H](CC(C)C)C(=O)N[C@H](C(=O)N[C@@H](CCCNC(=N)N)C(=O)N[C@@H](CO)C(=O)N[C@@H](CO)C(=O)N[C@@H](CC(N)=O)C(=O)N[C@@H](CC(N)=O)C(=O)N[C@@H](Cc1ccccc1)C(=O)NCC(=O)N[C@@H](C)C(=O)N1CCC[C@H]1C(=O)N[C@@H](CC(C)C)C(=O)N[C@@H](CO)C(=O)N[C@@H](CO)C(=O)N[C@H](C(=O)N[C@@H](CC(N)=O)C(=O)N[C@H](C(=O)NCC(=O)N[C@@H](CO)C(=O)N[C@@H](CC(N)=O)C(=O)N[C@H](C(=O)N[C@@H](Cc1ccc(O)cc1)C(N)=O)[C@@H](C)O)C(C)C)[C@@H](C)O)C(C)C [DM] (H-KCNTATCATQRLANFLVRSSNNFGAPLSSTNVGSNTY-NH2; disulfide 2-7; N-terminus assumed) | much better solubility at neutral pH than PM |  |
|  | no fibrils were found |  |  | CC[C@H](C)[C@H](NC(=O)[C@@H]1CCCN1C(=O)CNC(=O)[C@H](Cc1ccccc1)NC(=O)[C@H](CC(N)=O)NC(=O)[C@H](CC(N)=O)NC(=O)[C@H](CO)NC(=O)[C@H](CO)NC(=O)[C@H](Cc1c[nH]cn1)NC(=O)[C@@H](NC(=O)[C@H](CC(C)C)NC(=O)[C@H](Cc1ccccc1)NC(=O)[C@H](CC(N)=O)NC(=O)[C@H](C)NC(=O)[C@H](CC(C)C)NC(=O)[C@H](CCCNC(=N)N)NC(=O)[C@H](CCC(N)=O)NC(=O)[C@@H](NC(=O)[C@H](C)NC(=O)[C@@H]1CSSC[C@H](NC(=O)[C@@H](N)CCCCN)C(=O)N[C@@H](CC(N)=O)C(=O)N[C@@H]([C@@H](C)O)C(=O)N[C@@H](C)C(=O)N[C@@H]([C@@H](C)O)C(=O)N1)[C@@H](C)O)C(C)C)C(=O)N[C@@H](CC(C)C)C(=O)N1CCC[C@H]1C(=O)N1CCC[C@H]1C(=O)N[C@H](C(=O)N[C@@H](CC(N)=O)C(=O)N[C@H](C(=O)NCC(=O)N[C@@H](CO)C(=O)N[C@@H](CC(N)=O)C(=O)N[C@H](C(=O)N[C@@H](Cc1ccc(O)cc1)C(N)=O)[C@@H](C)O)C(C)C)[C@@H](C)O [PM] |  | flat fluorescence curves; also recorded: do not form amyloid |
